Earlier results as cited in patent publication US20070009923A1, “Use of bayesian networks for modeling cell signaling systems” (Massachusetts Institute of Technology, priority 2005, published 2007).

Test system: PKC isozymes

IC50: < 8 nM
Compound: Cn1c2ccccc2c2c3c(c4c5ccccc5n(CCC#N)c4c21)CNC3=O [G06976]
